Values quoted from earlier work as cited in paper PMC12833858 (Journal of Medicinal Chemistry, 2026).

Experiments:
Aurora A [1] = target: T1, Aurora A (Homo sapiens, UniProt O14965); set-up: method as in Adhikari et al.; settings: isothermal titration calorimetry, n = 4; ref Adhikari et al.; read-out: KD Aurora A (ITC)
T1 sequence (O14965 1-403): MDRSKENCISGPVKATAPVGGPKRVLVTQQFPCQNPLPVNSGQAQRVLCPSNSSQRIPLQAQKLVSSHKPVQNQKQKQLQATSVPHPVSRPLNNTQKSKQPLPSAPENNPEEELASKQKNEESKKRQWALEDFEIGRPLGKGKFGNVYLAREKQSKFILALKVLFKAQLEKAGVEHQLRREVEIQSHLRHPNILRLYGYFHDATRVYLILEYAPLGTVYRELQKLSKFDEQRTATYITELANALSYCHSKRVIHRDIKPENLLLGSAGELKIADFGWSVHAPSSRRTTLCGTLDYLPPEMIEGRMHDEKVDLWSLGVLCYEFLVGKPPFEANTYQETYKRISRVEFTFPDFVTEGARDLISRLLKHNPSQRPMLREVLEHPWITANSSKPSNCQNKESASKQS

Aurora A [2] = target: T1, Aurora A; set-up: expressed in transfected cells; settings: reported value, HiBiT assay in MV4-11 pediatric leukemia cells

Structure (SMILES): COc1cc(Nc2ncc3c(n2)-c2ccc(Cl)cc2C(c2c(F)cccc2OC)=NC3)ccc1C(=O)NCCOCCOCCNC(=O)COc1cccc2c1C(=O)N(C1CCC(=O)NC1=O)C2=O (centres unmarked) [JB170]
- Kd (Aurora A [1]): 375 ± 22 nM
- DC50 (Aurora A [2]): 28 nM
